This assay deals with T1, Purine nucleoside phosphorylase (Plasmodium falciparum, UniProt Q8T9Z7).
T1 sequence (Q8T9Z7 whole entry): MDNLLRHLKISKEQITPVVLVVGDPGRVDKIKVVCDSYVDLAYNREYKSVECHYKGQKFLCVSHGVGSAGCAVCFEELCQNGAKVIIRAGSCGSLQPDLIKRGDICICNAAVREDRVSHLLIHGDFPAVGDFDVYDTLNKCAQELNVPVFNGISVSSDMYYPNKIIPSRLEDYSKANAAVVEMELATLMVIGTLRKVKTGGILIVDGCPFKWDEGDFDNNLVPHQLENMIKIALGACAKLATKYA
Nature of the assay: Inhibition of Plasmodium falciparum PNP expressed in Escherichia coli BL21(DE3) cells by spectrophotometry.

In turn, `O=c1[nH]c(O)c(Cc2ccccc2)c(=O)[nH]1` [5-benzylpyrimidine-2,4,6(1H,3H,5H)-trione] had an IC50 greater than 1 mM.

The values above are taken from BindingDB's records for doi:10.1016/j.ejmech.2010.08.026 (Instituto De Parasitología Y Biomedicina …, 2010).
